Results on 15 molecules are retold here after patent US9221808B2, “Pyridylthiazole-based ureas as inhibitors of Rho associated protein kinase (ROCK) and methods of use” (H. Lee Moffitt Cancer Center and Research Institute, Inc., priority 2010, dated 2015).

What is called IC50 is the concentration at which inhibition is half-maximal. Usually inhibition stands for the change of the read-out against control, counted positive when it falls.

Where two headings read alike, the source gives them in different places.

One test concerns the target ROCK1 (Homo sapiens (Human), UniProt Q13464). Nature of the test: FRET-based Z'-Lyte kinase assay, ROCK1.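 Further: kinase phosphorylates a coumarin/fluorescein-labelled FRET peptide, then a protease cleaves unphosphorylated peptide, progress read as donor to acceptor emission ratio after 400 nm excitation.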 It is filed as biochemical.
The target of test [1] is T1, ROCK2 (Homo sapiens (Human), UniProt O75116). Nature of the test: FRET-based Z'-Lyte kinase assay, ROCK2.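 Further: kinase phosphorylates a coumarin/fluorescein FRET peptide, then a protease cleaves unphosphorylated peptide, read as donor/acceptor emission ratio after 400 nm excitation.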 It is filed as biochemical.
T1 sequence (O75116 whole entry, species assumed): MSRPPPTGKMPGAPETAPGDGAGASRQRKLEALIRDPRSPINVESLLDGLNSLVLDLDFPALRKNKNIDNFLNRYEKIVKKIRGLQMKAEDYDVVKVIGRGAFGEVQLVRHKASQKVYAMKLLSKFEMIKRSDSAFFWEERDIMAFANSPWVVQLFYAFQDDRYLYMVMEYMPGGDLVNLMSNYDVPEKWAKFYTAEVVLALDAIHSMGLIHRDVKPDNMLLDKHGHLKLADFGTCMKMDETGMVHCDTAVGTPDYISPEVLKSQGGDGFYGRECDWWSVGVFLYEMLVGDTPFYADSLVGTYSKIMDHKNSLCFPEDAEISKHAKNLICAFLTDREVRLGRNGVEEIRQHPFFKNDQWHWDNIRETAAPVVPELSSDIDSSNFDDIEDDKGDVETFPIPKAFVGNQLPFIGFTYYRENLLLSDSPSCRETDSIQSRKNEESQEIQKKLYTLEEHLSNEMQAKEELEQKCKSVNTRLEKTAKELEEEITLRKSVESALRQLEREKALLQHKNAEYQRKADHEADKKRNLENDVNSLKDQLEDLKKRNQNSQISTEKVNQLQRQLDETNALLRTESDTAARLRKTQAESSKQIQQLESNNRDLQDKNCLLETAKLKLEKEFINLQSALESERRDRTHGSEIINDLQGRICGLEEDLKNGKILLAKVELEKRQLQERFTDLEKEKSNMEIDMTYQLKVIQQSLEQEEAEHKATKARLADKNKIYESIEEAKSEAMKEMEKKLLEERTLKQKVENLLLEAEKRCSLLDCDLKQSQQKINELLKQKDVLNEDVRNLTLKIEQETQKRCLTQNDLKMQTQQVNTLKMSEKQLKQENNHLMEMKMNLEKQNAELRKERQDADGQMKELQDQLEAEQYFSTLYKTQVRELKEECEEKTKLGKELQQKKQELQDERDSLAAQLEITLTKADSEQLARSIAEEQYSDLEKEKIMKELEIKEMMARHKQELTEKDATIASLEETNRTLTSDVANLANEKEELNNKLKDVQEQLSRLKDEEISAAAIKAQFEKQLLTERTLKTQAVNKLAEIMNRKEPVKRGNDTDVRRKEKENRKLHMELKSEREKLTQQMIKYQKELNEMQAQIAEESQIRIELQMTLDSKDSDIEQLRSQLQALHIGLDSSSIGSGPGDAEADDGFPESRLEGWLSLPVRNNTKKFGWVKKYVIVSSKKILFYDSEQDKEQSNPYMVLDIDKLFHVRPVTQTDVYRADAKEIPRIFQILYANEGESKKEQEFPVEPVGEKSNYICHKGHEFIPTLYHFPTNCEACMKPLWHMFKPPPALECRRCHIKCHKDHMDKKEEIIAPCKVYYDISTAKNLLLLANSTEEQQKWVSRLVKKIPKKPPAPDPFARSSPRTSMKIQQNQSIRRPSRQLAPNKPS
Text: (§1) A) In the primary reaction, the Rho kinases phosphorylates a single serine or threonine residue in a synthetic FRET-peptide. This FRET-peptide is doubly labeled with a fluorophore at each end—coumarin (the FRET donor) on one end and fluorescein (the FRET acceptor) on the other—and also contains a single phosphorylation site which either overlaps with or lies adjacent to the proteolytic site. B) In the secondary reaction, a site-specific protease recognizes and cleaves the non-phosphorylated FRET-peptide. Cleavage disrupts FRET between the donor and acceptor fluorophores on the FRET-peptide, whereas uncleaved, phosphorylated FRET-peptides maintain FRET. Kinases phosphorylated FRET-peptides cannot be cleaved by the protease. […] Cleavage disrupts FRET and causes a decrease in the fluorescein fluorescence signal and a strong increase in the coumarin fluorescence signal. Therefore the extension of the phosphprylation can be measured by FRET-signal remaining the protease reaction. The assay uses a ratiometric method, which calculates the ratio of donor emission to acceptor emission (the emission ratio) after excitation of the donor fluorophore at 400 nm, to quantitate reaction progress.
(§2) All compounds were systematically screened against ROCK1 and ROCK2.
The target in another test is Aurora-A (Homo sapiens (Human), UniProt O14965). Description: preliminary kinase-selectivity profile, Aurora-A. Type of test: biochemical.
Chain of Aurora-A (O14965 whole entry): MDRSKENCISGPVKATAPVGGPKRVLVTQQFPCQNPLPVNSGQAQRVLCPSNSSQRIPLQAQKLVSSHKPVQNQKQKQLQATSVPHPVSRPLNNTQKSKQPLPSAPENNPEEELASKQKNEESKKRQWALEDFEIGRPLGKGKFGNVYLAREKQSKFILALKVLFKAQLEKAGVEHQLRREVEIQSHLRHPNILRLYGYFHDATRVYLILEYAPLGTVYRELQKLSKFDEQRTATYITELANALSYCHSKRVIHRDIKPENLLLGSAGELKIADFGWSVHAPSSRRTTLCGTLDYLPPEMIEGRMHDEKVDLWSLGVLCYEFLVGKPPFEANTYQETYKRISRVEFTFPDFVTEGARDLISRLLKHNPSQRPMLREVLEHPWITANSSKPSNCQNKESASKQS
The target of test [2] is T1, ROCK2. To be noted: reported by MLSCN, assay ID 644; read-out: ROCK2 enzymatic activity IC50; cited from earlier work.
In test [3] the test system is phosphorylation of MYPT1, a substrate for ROCK kinase, in H1299 cells. Nature of the test: phosphorylation levels of MYPT1 in intact H1299 cells (western blot). It is filed as cell-based, human. To be noted: for IC50: H1299 human lung cancer cells, read-out: IC50 for inhibition of phosphorylation of MYPT1.
A further test concerns breast tumors. Description: transgenic mouse breast cancer model (rat Her2 under MMTV promoter). To be noted: 200 mpk/day, once a day for 14 days; last day of treatment relative to day of initiation. It is filed as in vivo. Here is the method:
The anti tumor activity of 1bo was determined in vivo in a transgenic mouse breast cancer model. In this model, the mice harbor the rat Her2 gene under the control of the MMTV promoter. These mice therefore spontaneously develop tumors in their mammary tissues. Breast tumors were measured beginning at the time of tumor onset and treatment (once a day for 14 days) with vehicle (20% HPCD) or 1bo (200 mpk/day) began when tumor volumes reached about 200 to 2,300 mm^3. A wide range of tumor volumes was used to ensure that responses were not volume dependent. […] The percent change was calculated from the tumor volume on the last day of treatment relative to the volume on the day of initiation of treatment. […] Thus, on average the breast tumors from 1bo treated mice were 6.6 fold smaller compared to those tumors from mice treated with the vehicle control.

Chain of ROCK1 (Q13464 whole entry, species assumed): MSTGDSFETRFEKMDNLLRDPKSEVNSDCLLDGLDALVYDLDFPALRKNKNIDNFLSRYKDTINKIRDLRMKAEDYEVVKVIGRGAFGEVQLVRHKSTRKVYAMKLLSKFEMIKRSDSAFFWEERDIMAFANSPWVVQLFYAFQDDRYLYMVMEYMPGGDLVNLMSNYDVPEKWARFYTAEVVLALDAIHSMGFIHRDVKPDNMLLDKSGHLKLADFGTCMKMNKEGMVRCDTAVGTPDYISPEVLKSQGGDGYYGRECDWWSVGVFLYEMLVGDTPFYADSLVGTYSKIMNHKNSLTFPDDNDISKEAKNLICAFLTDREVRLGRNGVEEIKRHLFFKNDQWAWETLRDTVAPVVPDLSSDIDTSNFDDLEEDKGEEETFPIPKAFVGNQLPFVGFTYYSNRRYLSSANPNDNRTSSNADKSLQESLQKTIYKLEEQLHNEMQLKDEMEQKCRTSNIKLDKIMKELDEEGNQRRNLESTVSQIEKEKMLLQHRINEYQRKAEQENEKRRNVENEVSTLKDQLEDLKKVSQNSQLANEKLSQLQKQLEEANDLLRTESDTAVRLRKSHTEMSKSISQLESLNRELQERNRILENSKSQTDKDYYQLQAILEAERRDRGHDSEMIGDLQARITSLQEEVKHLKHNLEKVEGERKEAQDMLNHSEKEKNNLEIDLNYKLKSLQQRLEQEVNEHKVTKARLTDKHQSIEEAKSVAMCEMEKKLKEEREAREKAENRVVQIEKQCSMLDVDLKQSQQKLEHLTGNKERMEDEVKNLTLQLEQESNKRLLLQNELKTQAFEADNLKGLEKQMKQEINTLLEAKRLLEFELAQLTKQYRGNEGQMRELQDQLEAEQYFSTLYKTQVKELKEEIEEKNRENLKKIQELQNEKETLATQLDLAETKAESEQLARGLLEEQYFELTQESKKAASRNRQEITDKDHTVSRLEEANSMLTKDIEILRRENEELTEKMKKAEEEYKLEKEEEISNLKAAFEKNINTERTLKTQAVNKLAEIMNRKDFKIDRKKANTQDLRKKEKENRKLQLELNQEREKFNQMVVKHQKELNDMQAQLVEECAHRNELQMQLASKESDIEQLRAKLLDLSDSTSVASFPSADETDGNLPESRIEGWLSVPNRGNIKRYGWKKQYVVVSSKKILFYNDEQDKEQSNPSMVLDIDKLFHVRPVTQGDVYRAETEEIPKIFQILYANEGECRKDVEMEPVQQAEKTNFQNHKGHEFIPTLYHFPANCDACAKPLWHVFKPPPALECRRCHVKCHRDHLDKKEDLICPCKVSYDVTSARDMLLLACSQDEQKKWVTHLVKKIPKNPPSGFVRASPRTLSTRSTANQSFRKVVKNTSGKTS
Text for ROCK1: as §1, §2

Consider `O=C(Nc1nc(-c2ccncc2)cs1)C1COc2ccccc2O1` (centres unmarked) [CID5056270, reference compound], for which the concentration for half-maximal inhibition (IC50) on ROCK1 (read-out: ROCK1 IC50) is 0.076 µM; on ROCK2 [1] (read-out: ROCK2 IC50) it was 0.04 µM; on Aurora-A, > 100 µM; at ROCK2 [2] it was < 0.003 µM.

On to `COc1ccc(CNC(=O)Nc2nc(-c3ccncc3)cs2)cc1` [Compound 1am, 1-(4-Methoxybenzyl)-3-(4-(pyridin-4-yl)thiazol-2-yl)urea], for which, at ROCK1 (read-out: ROCK1 % inhibition @ 50 μM, 50 μM compound), the inhibition at 50 µM came out at 9.12%. Besides, the “effect on phosphorylation of MYPT1” value in test [3] (H1299 cells, 10 μM) is reported as “did not affect”.

For `O=C(NCc1cccc(O)c1)Nc1nc(-c2ccncc2)cs1` [Compound 1bo, 1-(3-Hydroxybenzyl)-3-(4-(pyridin-4-yl)thiazol-2-yl)urea], the IC50 came out at 0.008 µM at ROCK1 (read-out: ROCK1 IC50) and 0.5 µM in test [3]. In addition, in the test with breast tumors, the “average percent change in tumor volume” value was 8.9%.

As for `O=C(NCc1cccc(O)c1)Nc1nc(-c2ccncc2)cs1` [Compound 1bo-Mes, 1-(3-hydroxybenzyl)-3-(4-(pyridin-4-yl)thiazol-2-yl)urea methanesulfonate], the IC50 at ROCK1 (methanesulfonate, read-out: IC50 ± SD (μM) ROCK1) is 0.013 µM; on ROCK1 (read-out: ROCK1 IC50), 0.012 µM; in test [3] (NCI-H1299), 0.5 µM.

Turning to `COc1cccc(CN(C)C(=O)Nc2nc(-c3ccncc3)cs2)c1` [Compound 1cm, 1-(3-Methoxybenzyl)-1-methyl-3-(4-(pyridin-4-yl)thiazol-2-yl)urea], the IC50 was determined as 0.04 ± 0.01 µM on ROCK1 (read-out: IC50 ± SD (μM) ROCK1) and 0.015 ± 0.004 µM on ROCK2 [1] (read-out: IC50 ± SD (μM) ROCK2).

As to `C[C@H](c1ccccc1)N(C)C(=O)Nc1nc(-c2ccncc2)cs1` [Compound 1cn, (R)-1-Methyl-1-(1-phenylethyl)-3-(4-(pyridin-4-yl)thiazol-2-yl)urea], the figures for the IC50 at ROCK1 (read-out: IC50 ± SD (μM) ROCK1) and on ROCK2 [1] (read-out: IC50 ± SD (μM) ROCK2) were 0.12 ± 0.04 µM and 0.047 ± 0.018 µM, respectively.

Take `C[C@@H](c1ccccc1)N(C)C(=O)Nc1nc(-c2ccncc2)cs1` [Compound 1co, (S)-1-Methyl-1-(1-phenylethyl)-3-(4-(pyridin-4-yl)thiazol-2-yl)urea]: the results for the IC50 on ROCK1 (read-out: IC50 ± SD (μM) ROCK1) and at ROCK2 [1] (read-out: IC50 ± SD (μM) ROCK2) were 6.44 ± 1.67 µM and 2.67 ± 0.89 µM, respectively.

`NC(=O)[C@@H](NC(=O)Nc1nc(-c2ccncc2)cs1)c1ccccc1` [Compound 1cp, (S)-2-Phenyl-2-(3-(4-(pyridin-4-yl)thiazol-2-yl)ureido)acetamide]: the “fold loss of potency compared to 1at” value at ROCK1 (comparator 1at) came out at 11 fold. Moreover, the half-inhibitory concentration (IC50) on ROCK1 (read-out: IC50 ± SD (μM) ROCK1) was determined as 0.08 ± 0.01 µM; at ROCK2 [1] (read-out: IC50 ± SD (μM) ROCK2), 0.04 ± 0.016 µM.

With `O=C(Nc1nc(-c2ccncc2)cs1)N1CCc2ccccc2C1` [Compound 1cq, N-(4-(Pyridin-4-yl)thiazol-2-yl)-3,4-dihydroisoquinoline-2(1H)-carboxamide], the IC50 on ROCK1 (read-out: IC50 ± SD (μM) ROCK1) was determined as 3.87 ± 0.351 µM; at ROCK2 [1] (read-out: IC50 ± SD (μM) ROCK2), 1.95 ± 0.389 µM.

On to `O=C(Nc1nc(-c2ccncc2)cs1)N[C@@H]1CCc2ccccc21` [Compound 1ct, (R)-1-(2,3-Dihydro-1H-inden-1-yl)-3-(4-(pyridin-4-yl)thiazol-2-yl)urea], for which the IC50 on ROCK1 (read-out: IC50 ± SD (μM) ROCK1) came out at 28.2 ± 1.84 µM; at ROCK2 [1] (read-out: IC50 ± SD (μM) ROCK2), 52.5 ± 1.75 µM.

With `O=C(Nc1nc(-c2ccncc2)cs1)N[C@H]1CCc2ccccc21` [Compound 1cu, (S)-1-(2,3-Dihydro-1H-inden-1-yl)-3-(4-(pyridin-4-yl)thiazol-2-yl)urea], the IC50 stood at 3.21 ± 0.9 µM at ROCK1 (read-out: IC50 ± SD (μM) ROCK1) and 1.83 ± 0.56 µM at ROCK2 [1] (read-out: IC50 ± SD (μM) ROCK2).

For the molecule `O=C(Nc1nc(-c2ccncc2)cs1)N[C@@H]1CCCc2ccccc21` [Compound 1cv, (R)-1-(4-(Pyridin-4-yl)thiazol-2-yl)-3-(1,2,3,4-tetrahydronaphthalen-1-yl)urea], the concentration for half-maximal inhibition (IC50) at ROCK1 (read-out: IC50 ± SD (μM) ROCK1) was determined as 6.99 ± 1.61 µM; on ROCK2 [1] (read-out: IC50 ± SD (μM) ROCK2) it was 3.82 ± 1.53 µM.

As to `O=C(Nc1nc(-c2ccncc2)cs1)N[C@H]1CCCc2ccccc21` [Compound 1cw], the IC50 worked out at 6.25 ± 1.36 µM at ROCK1 (read-out: IC50 ± SD (μM) ROCK1) and 3.35 ± 0.87 µM at ROCK2 [1] (read-out: IC50 ± SD (μM) ROCK2).

Take `O=C(Nc1nc(-c2ccncc2)cs1)Nc1ccccc1Cl` [Compound 6e, 1-(2-Chlorophenyl)-3-(4-(pyridin-4-yl)thiazol-2-yl)urea]: the IC50 is 2.49 ± 1.07 µM on ROCK1 (read-out: IC50 ± SD (μM) ROCK1) and 3.75 ± 0.39 µM on ROCK2 [1] (read-out: IC50 ± SD (μM) ROCK2).

Take `O=C(Nc1nc(-c2ccncc2)cs1)N1CCN(c2ccncc2)CC1` [Compound 12a, 4-(Pyridin-4-yl)-N-(4-(pyridin-4-yl)thiazol-2-yl)piperazine-1-carboxamide]: the IC50 was determined as 16.9 ± 2.11 µM at ROCK1 (read-out: IC50 ± SD (μM) ROCK1) and 8.35 ± 2.36 µM at ROCK2 [1] (read-out: IC50 ± SD (μM) ROCK2).
